Test results taken from PMC6143434 (Molecular neurobiology, 2018).
“And” between values parts separate entries of the source, which are not always exact repeats. Identical values can stand only once. Counter-ions that a name gives are not always drawn. Like-named read-outs stand apart in the source and are kept apart here. Each block holds one compound with its values, some of them ahead of it.

Key:
[1] = target: α2 adrenoceptors (cortex, mostly α2A) (Ovis aries, UniProt A0ACI6PY47); assay: [3H]RX821002 binding; design: species or system sheep
[2] = target: α2 adrenoceptors (striatum, α2A and α2C); assay: [3H]RX821002 binding; design: species or system sheep
α2A adrenoceptor [3] = target: T1, α2A adrenoceptor (Homo sapiens, UniProt P08913); assay: G protein activation BRET assay in transfected HEK-293T cells; format: cell-based; details: for EC50: read-out: Potency (EC50) G protein activation
T1 sequence (P08913 1-465): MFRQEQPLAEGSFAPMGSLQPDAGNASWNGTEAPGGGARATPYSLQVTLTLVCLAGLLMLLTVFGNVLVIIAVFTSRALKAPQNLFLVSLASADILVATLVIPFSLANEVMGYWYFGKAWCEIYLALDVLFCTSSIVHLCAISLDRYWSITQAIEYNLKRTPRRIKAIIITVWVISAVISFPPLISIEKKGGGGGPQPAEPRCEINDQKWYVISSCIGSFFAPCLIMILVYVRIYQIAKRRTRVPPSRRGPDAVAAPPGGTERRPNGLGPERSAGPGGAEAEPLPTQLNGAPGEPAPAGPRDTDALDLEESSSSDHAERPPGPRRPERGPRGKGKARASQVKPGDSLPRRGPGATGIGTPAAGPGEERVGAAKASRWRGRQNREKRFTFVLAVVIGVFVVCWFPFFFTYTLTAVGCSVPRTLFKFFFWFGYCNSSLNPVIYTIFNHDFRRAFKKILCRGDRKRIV

α2C adrenoceptor [4] = target: T2, α2C adrenoceptor (Homo sapiens, UniProt P18825); assay: as above; format: cell-based
T2 sequence (P18825 1-462): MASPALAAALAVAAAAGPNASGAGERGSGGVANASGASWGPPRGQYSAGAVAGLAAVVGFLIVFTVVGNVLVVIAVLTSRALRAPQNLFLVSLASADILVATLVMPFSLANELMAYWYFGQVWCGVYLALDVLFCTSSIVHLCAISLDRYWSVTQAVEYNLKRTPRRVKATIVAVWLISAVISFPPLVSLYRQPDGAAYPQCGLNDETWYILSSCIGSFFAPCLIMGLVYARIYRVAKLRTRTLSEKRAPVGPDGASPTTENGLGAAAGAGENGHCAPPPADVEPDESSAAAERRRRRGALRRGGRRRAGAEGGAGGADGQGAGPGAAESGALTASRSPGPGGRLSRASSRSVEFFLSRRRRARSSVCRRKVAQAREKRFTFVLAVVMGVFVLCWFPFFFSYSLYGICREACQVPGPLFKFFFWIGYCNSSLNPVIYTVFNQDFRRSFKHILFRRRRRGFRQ

α2A adrenoceptor [5] = target: T1, α2A adrenoceptor; assay: DMR label-free assay in CHO cells transfected with α2A-RLuc8 receptor; format: cell-based; details: for DMR response: at 300 nM, Fig. 6 legend: 100 nM
α2A adrenoceptor [6] = target: T1, α2A adrenoceptor; assay: ERK1/2 phosphorylation in CHO cells transfected with α2A-RLuc8 receptor; format: cell-based; details: 5 minutes; for MAPK activation (ERK1/2 phosphorylation): 1 μM
D2-like receptor D2L = details: read-out: EC50 values, G protein activation, across Gi/o protein subtypes; cited from earlier work
α2A adrenoceptor [7] = target: T1, α2A adrenoceptor
α2C adrenoceptor [8] = target: T2, α2C adrenoceptor
α2C adrenoceptor [9] = target: T2, α2C adrenoceptor; assay: cell-based
D2-like receptors = D2-like receptors (Ovis aries, UniProt A0ACI6R699); assay: [3H]YM-09151-2 competition binding, sheep brain striatum; details: sheep striatal membranes; any concentration up to 10 μM
human D2 receptor = human D2 receptor (Homo sapiens, UniProt P14416); format: binding; details: HEK-293T membranes, up to 10 μM; data not shown
human D2 receptor, sequence (P14416 whole entry): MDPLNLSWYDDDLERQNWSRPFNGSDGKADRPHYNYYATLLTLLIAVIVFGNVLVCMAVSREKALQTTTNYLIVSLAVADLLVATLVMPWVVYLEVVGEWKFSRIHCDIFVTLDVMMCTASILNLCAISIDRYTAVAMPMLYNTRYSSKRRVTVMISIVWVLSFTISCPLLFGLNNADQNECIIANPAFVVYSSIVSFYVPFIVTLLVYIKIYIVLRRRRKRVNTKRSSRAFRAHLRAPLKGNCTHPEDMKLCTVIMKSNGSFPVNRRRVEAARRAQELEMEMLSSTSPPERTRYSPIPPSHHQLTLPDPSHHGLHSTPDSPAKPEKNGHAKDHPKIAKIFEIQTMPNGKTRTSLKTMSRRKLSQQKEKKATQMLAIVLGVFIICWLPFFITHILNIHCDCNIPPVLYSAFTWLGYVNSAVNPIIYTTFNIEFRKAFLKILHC

human D3 receptor = human D3 receptor (Homo sapiens, UniProt P35462); format: binding; details: HEK-293T membranes, up to 10 μM; data not shown
human D3 receptor, sequence (P35462 whole entry): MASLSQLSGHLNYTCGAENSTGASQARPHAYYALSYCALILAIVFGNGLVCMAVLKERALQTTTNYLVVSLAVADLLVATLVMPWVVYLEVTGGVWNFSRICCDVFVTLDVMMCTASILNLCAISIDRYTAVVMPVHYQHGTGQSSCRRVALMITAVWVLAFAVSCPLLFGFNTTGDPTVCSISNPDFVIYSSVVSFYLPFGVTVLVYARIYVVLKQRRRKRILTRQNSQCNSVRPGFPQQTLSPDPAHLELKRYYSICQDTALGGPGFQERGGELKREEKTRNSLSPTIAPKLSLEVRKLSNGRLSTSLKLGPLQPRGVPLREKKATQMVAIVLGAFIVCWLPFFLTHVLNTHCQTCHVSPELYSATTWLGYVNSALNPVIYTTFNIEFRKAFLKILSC

human D4 receptor = target: T3, human D4 receptor (Homo sapiens, UniProt P21917); format: binding; details: HEK-293T membranes, up to 10 μM; data not shown
T3 sequence (P21917 1-419): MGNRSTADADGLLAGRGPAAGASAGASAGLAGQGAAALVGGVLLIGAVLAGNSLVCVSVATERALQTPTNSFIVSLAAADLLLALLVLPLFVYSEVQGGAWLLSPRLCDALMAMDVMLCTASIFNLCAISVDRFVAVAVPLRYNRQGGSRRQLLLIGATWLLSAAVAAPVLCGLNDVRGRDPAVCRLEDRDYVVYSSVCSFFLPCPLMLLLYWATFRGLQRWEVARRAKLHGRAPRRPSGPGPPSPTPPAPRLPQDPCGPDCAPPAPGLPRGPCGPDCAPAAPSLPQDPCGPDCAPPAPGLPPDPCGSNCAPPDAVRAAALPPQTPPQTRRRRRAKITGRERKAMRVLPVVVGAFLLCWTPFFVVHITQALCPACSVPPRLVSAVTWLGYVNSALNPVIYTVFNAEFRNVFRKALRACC

[10] = read-out: KDB1, cortex, vs [3H]RX821002, two-state dimer model, first protomer
[11] = read-out: KDB2, cortex, vs [3H]RX821002, two-state dimer model, second protomer
[12] = read-out: KDB1, striatum, vs [3H]RX821002, two-state dimer model, first protomer
[13] = read-out: KDB2, striatum, vs [3H]RX821002, two-state dimer model, second protomer

SMILES: CCCN(C/C=C/I)C1CCc2ccc(O)cc2C1 (stereo not shown) [7-OH-PIPAT, 7-OH-PIPAT maleate]
DCB (cooperativity index) ([1]; cortex, vs [3H]RX821002): DCB: -1.1
Kd [1, 10]: 9 nM
Kd [1, 11]: 430 nM
Kd [2, 12]: 51 nM
Efficacy (Emax) G protein activation (α2A adrenoceptor [3]; Gαi1, α2A): 94 ± 6 percentage of NE values
Efficacy (Emax) G protein activation (α2A adrenoceptor [3]; Gαi2, α2A): 55 ± 2 percentage of NE values
Efficacy (Emax) G protein activation (α2A adrenoceptor [3]; Gαi3, α2A): 71 ± 6 percentage of NE values
Efficacy (Emax) G protein activation (α2A adrenoceptor [3]; Gαo1, α2A): 81 ± 9 percentage of NE values
Efficacy (Emax) G protein activation (α2A adrenoceptor [3]; Gαo2, α2A): 85 ± 4 percentage of NE values
EC50 (α2A adrenoceptor [3]; Gαo1, α2A): 100 ± 20 nM
EC50 (α2A adrenoceptor [3]; Gαo2, α2A): 66 ± 7 nM
Efficacy (Emax) G protein activation (α2C adrenoceptor [4]; Gαi1, α2C, ND: not detectable): 41 ± 1 percentage of NE values
Efficacy (Emax) G protein activation (α2C adrenoceptor [4]; Gαi2, α2C): 90 ± 20 percentage of NE values
Efficacy (Emax) G protein activation (α2C adrenoceptor [4]; Gαi3, α2C): 90 ± 10 percentage of NE values
Efficacy (Emax) G protein activation (α2C adrenoceptor [4]; Gαo1, α2C): 98 ± 7 percentage of NE values
Efficacy (Emax) G protein activation (α2C adrenoceptor [4]; Gαo2, α2C): 106 ± 3 percentage of NE values
EC50 (α2C adrenoceptor [4]; read-out: Potency (EC50) G protein activation, Gαi3, α2C): 5 ± 3 nM
DMR response (α2A adrenoceptor [5]): significant response
MAPK activation (ERK1/2 phosphorylation) (α2A adrenoceptor [6]): able to produce MAPK activation

SMILES: Clc1cccc(Cl)c1N=C1NCCN1 [Clonidine, clonidine hydrochloride]
Kd [2, 12]: 0.036 nM
Kd [2, 13]: 20 nM
Efficacy (Emax) G protein activation (α2A adrenoceptor [3]): 110 ± 10 percentage of NE values and 120 ± 2 percentage of NE values and 120 ± 5 percentage of NE values and 89 ± 6 percentage of NE values and 112 ± 8 percentage of NE values

SMILES: Cc1ncc(CN2CC=C(c3ccccc3)CC2)c(N)n1.Cl.Cl [RO-105824, RO-105824 dihydrochloride]
Kd [1, 10]: 0.055 nM
Kd [1, 11]: 4000 nM
Kd [2, 12]: 0.42 nM
G protein activation (agonist effect) (α2A adrenoceptor [3]; α2A, Gαi2 and Gαi3): small efficacy
G protein activation (agonist effect) (α2A adrenoceptor [3]; α2A, Gαi/o subtypes other than Gαi2 and Gαi3): did not produce a significant activation
inhibition of the agonistic effect of clonidine (1 μM) (α2A adrenoceptor [3]; α2A, Gαo1): did counteract
inhibition of the agonistic effect of clonidine (1 μM) (α2C adrenoceptor [4]; α2C, Gαo1): did counteract
G protein activation (agonist effect) (α2C adrenoceptor [4]; α2C, any of the Gαi/o subtypes): did not produce a significant activation
DMR response (α2A adrenoceptor [5]): substantially lower
MAPK activation (ERK1/2 phosphorylation) (α2A adrenoceptor [6]): able to produce MAPK activation

SMILES: COC(=O)[C@@H]1[C@H]2C[C@H]3c4[nH]c5ccccc5c4CCN3C[C@@H]2CC[C@@H]1O [yohimbine, yohimbine hydrochloride]
blockade of Gαo1 activation induced by 10 μM 7-OH-PIPAT or 10 μM quinpirole (α2A adrenoceptor [3]): completely blocked
blockade of Gαo1 activation induced by 10 μM 7-OH-PIPAT or 10 μM quinpirole (α2C adrenoceptor [4]): completely blocked
blockade of Gi/o-dependent effects of NE and DA on adenylyl cyclase (α2A adrenoceptor [7]; yohimbine 10 μM): blocked
blockade of Gi/o-dependent effects of NE and DA on adenylyl cyclase (α2C adrenoceptor [8]; yohimbine 10 μM): blocked

Second part, led by results:

effect on DA and NE activation of DMR (α2A adrenoceptor [5]; BRL 44408 1 μM, 30 minutes pretreatment): decreased
SMILES: CC1c2ccccc2CN1CC1=NCCN1 (stereo not shown) [BRL 44408]

Kd [2, 12]: 6 nM
Kd [2, 13]: 1000 nM
SMILES: NCCc1ccc(O)c(O)c1 [DA, Dopamine hydrochloride]
EC50 (D2-like receptor D2L): 130 to 400 nM

Efficacy (Emax) G protein activation (α2A adrenoceptor [3]; Gαi1, α2A): 100 ± 5 percentage of NE values
Efficacy (Emax) G protein activation (α2A adrenoceptor [3]; Gαi2, α2A): 100 ± 10 percentage of NE values
Efficacy (Emax) G protein activation (α2A adrenoceptor [3]; Gαi3, α2A): 100 ± 10 percentage of NE values
Efficacy (Emax) G protein activation (α2A adrenoceptor [3]; Gαo1, α2A): 100 ± 7 percentage of NE values
Efficacy (Emax) G protein activation (α2A adrenoceptor [3]; Gαo2, α2A): 100 ± 9 percentage of NE values
Efficacy (Emax) G protein activation (α2C adrenoceptor [4]; Gαi1, α2C, ND: not detectable): 100 ± 2 percentage of NE values
Efficacy (Emax) G protein activation (α2C adrenoceptor [4]; Gαi2, α2C): 100 ± 7 percentage of NE values
Efficacy (Emax) G protein activation (α2C adrenoceptor [4]; Gαi3, α2C): 100 ± 9 percentage of NE values
Efficacy (Emax) G protein activation (α2C adrenoceptor [4]; Gαo1, α2C): 100 ± 10 percentage of NE values
Efficacy (Emax) G protein activation (α2C adrenoceptor [4]; Gαo2, α2C): 100 ± 8 percentage of NE values
EC50 (α2C adrenoceptor [4]; Potency (EC50) G protein activation, Gαi3, α2C): 0.4 ± 0.2 nM
increase of ERK1/2 phosphorylation levels (α2A adrenoceptor [6]; 300 nM): 3 fold over basal
Gs activation (inverted U-shaped curve, high ligand concentrations) (α2A adrenoceptor [7]; at 10 and 100 μM): promoted Gs activation
Gs activation (inverted U-shaped curve, high ligand concentrations) (α2C adrenoceptor [8]; at 10 and 100 μM): promoted Gs activation
EC50 (α2C adrenoceptor [9]): 7 ± 4 nM
SMILES: NC[C@H](O)c1ccc(O)c(O)c1 [NE, L-(-)-norepinephrine (+)-bitartrate salt monohydrate]

displacement of [3H]YM-09151-2 binding (D2-like receptors): did not displace
displacement of [3H]YM-09151-2 binding (human D2 receptor): identical results
displacement of [3H]YM-09151-2 binding (human D3 receptor): identical results
displacement of [3H]YM-09151-2 binding (human D4 receptor): identical results
SMILES: COC1(C2=NCCN2)COc2ccccc2O1 (stereo not shown) [RX821002]

Kd ([1]; read-out: affinity value (KDA1) of the radioligand, saturation experiments, cortical tissue, n=4-8): 0.06 ± 0.01 nM
Kd ([2]; read-out: affinity value (KDA1) of the radioligand, saturation experiments, striatal tissue, n=4-8): 0.07 ± 0.01 nM
SMILES: COC1(C2=NCCN2)COc2ccccc2O1 (stereo not shown) [[^3H]RX821002]
